Measured values published in the NIST ThermoML archive (doi:10.1021/acs.jced.5b00820).

Test: xn = mol fraction of the nth substance listed
Details: 102.2 kPa, Liquid, Vibrating tube method

C[Si](C)(O[Si](C)(C)c1ccccc1)c1ccccc1 [1,3-diphenyltetramethyldisiloxane] + C[Si]1(CCC(F)(F)F)O[Si](C)(CCC(F)(F)F)O[Si](C)(CCC(F)(F)F)O1
mass density [kg/m3]
Details	308.15 K	313.15 K	318.15 K	323.15 K	328.15 K
x1 = 0.0501	1225.8	1219.39	1212.88	1206.4	1199.88
x1 = 0.1001	1214.52	1208.2	1201.82	1195.45	1189.07
x1 = 0.1499	1203.4	1197.13	1190.88	1184.63	1178.37
x1 = 0.2005	1191.71	1185.57	1179.46	1173.35	1167.25
x1 = 0.2497	1180.12	1174.1	1168.1	1162.13	1156.13
x1 = 0.3	1167.98	1162.08	1156.21	1150.35	1144.49
x1 = 0.3431	1157.27	1151.54	1145.79	1140.01	1134.24
x1 = 0.4001	1142.74	1137.19	1131.56	1125.93	1120.32
x1 = 0.45	1130.1	1124.64	1119.13	1113.61	1108.09
x1 = 0.4998	1117.1	1111.69	1106.32	1100.93	1095.54
x1 = 0.5482	1104.11	1098.84	1093.55	1088.31	1083.03
x1 = 0.5996	1089.99	1084.84	1079.71	1074.57	1069.43
x1 = 0.6501	1075.78	1070.7	1065.65	1060.62	1055.6
x1 = 0.7	1061.47	1056.57	1051.69	1046.82	1041.93
x1 = 0.75	1046.74	1041.96	1037.22	1032.47	1027.7
x1 = 0.8001	1031.67	1027.02	1022.41	1017.79	1013.17
x1 = 0.8499	1016.33	1011.73	1007.33	1002.84	998.35
x1 = 0.8998	1000.6	996.22	991.87	987.37	983.15
x1 = 0.95	984.46	980.22	976.02	971.79	967.58
x1 = 1	967.9	963.8	959.75	955.65	951.57
